# PubChem BioAssay AID1648 (Sanford-Burnham Center for Chemical Genomics, 2009)
# Active and inactive are the calls of the source. No rule for the calls is given here.
# Target: Serine/threonine-protein kinase mTOR (Homo sapiens) (UniProt P42345)
# Assay: binders of mTOR FRB domain, biophysical, NMR (AID 1648)
# Details: NMR binding to FRB domain, chemical shift
# Serine/threonine-protein kinase mTOR (Homo sapiens), sequence (P42345 2015-2114): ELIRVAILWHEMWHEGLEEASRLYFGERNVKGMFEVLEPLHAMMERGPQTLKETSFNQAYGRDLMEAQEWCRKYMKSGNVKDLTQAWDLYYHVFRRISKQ
row,Structure (SMILES),Kd
1,Cc1nc(N2CCOCC2)[nH]c(=O)c1C,> 4 mM (inactive)
2,COc1ccc(-c2nnc(-c3ccc(N)cc3)o2)cc1,> 4 mM (inactive)
3,CCOc1ccc(-c2c(=O)n(O)c3ccccc3[n+]2[O-])cc1,> 4 mM (inactive)
4,Cc1c(C(=O)Nc2cnccn2)oc2ccccc12,> 4 mM (inactive)
5,CCOc1cc(S(=O)(=O)n2nc(C)cc2C)ccc1F,> 4 mM (inactive)
6,CC(=O)c1c(C)n(O)c2ccc3nonc3c12,> 4 mM (inactive)
7,Cc1cn(C(=O)CN2C(=O)c3ccccc3C2=O)c(C)n1,> 4 mM (inactive)
8,CC(C)(C#N)O[C@@H]1O[C@H](CO)[C@@H](O)[C@H](O)[C@H]1O,> 4 mM (inactive)
9,O=C(Nc1c[nH]c(=O)[nH]c1=O)c1ccccc1F,> 4 mM (inactive)
10,O=c1ccn([C@@H]2O[C@H](COP(=O)(O)OP(=O)(O)OP(=O)(O)O)[C@@H](O)[C@H]2O)c(=O)[nH]1,> 4 mM (inactive)
11,CC(CCC(=O)O)[C@H]1CCC2C3CC[C@@H]4C[C@H](O)CC[C@]4(C)C3CC[C@@]21C (some centres not stated),> 4 mM (inactive)
12,NC(=O)CN1CC(=O)NC(=O)C1,> 4 mM (inactive)
13,O=C1CCC(=O)N1CN1CCOCC1,> 4 mM (inactive)
14,COC(=O)C1=C(C)N(Cc2ccco2)C(=O)C1,> 4 mM (inactive)
15,CC(=O)Nc1sccc1C(N)=O,> 4 mM (inactive)
16,CC(=O)Nc1ccn(Cc2c(F)cccc2Cl)n1,> 4 mM (inactive)
17,O=c1cc(-c2ccccc2)oc2cc(O)cc(O)c12,> 4 mM (inactive)
18,CS(=O)(=O)N1CCC(C(=O)NC2CCCC2)CC1,> 4 mM (inactive)
19,CCn1cnc2cc(NCc3ccncc3)ccc21,> 4 mM (inactive)
20,Nc1ccc(S(=O)(=O)N2CCCCC2)cc1,> 4 mM (inactive)
21,O=C1CSC(=Nc2ccccc2[N+](=O)[O-])N1,> 4 mM (inactive)
22,Cn1c(=O)n(C)c2cc(C(N)=O)ccc21,> 4 mM (inactive)

row,Structure (SMILES),Kd
1,CC1(C)NCCN2C(=O)CSC21 (configuration not stated),> 4 mM (inactive)
2,Nc1cccc(S(=O)(=O)N2CCCC2)c1,> 4 mM (inactive)
3,Cc1ccc(NC(=O)c2ccccc2)s1,> 4 mM (inactive)
4,NC(=O)CSc1ccc(-c2ccco2)nn1,> 4 mM (inactive)
5,COc1cc2nc(N3CCNCC3)nc(N)c2cc1OC,> 4 mM (inactive)
6,Cn1c(=O)c2[nH]c(Nc3ccccc3)nc2n(C)c1=O,> 4 mM (inactive)
7,N#CCc1nc2ccccc2s1,> 4 mM (inactive)
8,C[C@H]1[C@H](C)CC[C@]2(CO)CC[C@]3(C)C(=CCC4[C@@]5(C)CC[C@H](O)C(C)(C)C5CC[C@]43C)[C@H]12 (some centres not stated),> 4 mM (inactive)
9,O=c1c(-c2ccccc2)coc2cc(O)cc(O)c12,> 4 mM (inactive)
10,Cc1cc(NC(=O)c2cccc(S(C)(=O)=O)c2)no1,> 4 mM (inactive)
11,CC(=O)Nc1ccn(-c2ccccc2)n1,> 4 mM (inactive)
12,O=C(O)C1Cc2c([nH]c3ccccc23)CN1 (configuration not stated),> 4 mM (inactive)
13,CNc1nc(N)c(C(=O)C(C)(C)C)s1,> 4 mM (inactive)
14,O=C(O)CN1CCNCC1,> 4 mM (inactive)
15,CCN1CCc2c(sc(N)c2C#N)C1,> 4 mM (inactive)
16,CCOCC(=O)N1CCc2ccccc21,> 4 mM (inactive)
17,CCn1c(-c2ccccc2)n[nH]c1=S,> 4 mM (inactive)
18,CCNC(CC(=O)Nc1cccc([N+](=O)[O-])c1)C(=O)O (configuration not stated),> 4 mM (inactive)
19,COc1c2ccoc2nc2c(OC)c(OCC(O)C(C)(C)O)ccc12 (configuration not stated),> 4 mM (inactive)
20,c1ccc(CCNc2ncnc3nc[nH]c23)cc1,> 4 mM (inactive)
21,Cc1noc(C)c1C(=O)Nc1ccccc1-c1ccccc1,> 4 mM (inactive)
22,O=c1c[n+]([O-])c2ccccc2n1OCc1ccccc1,> 4 mM (inactive)

row,Structure (SMILES),Kd
1,CC(=O)OC1CCC2(O)CC1(C)CCC1C2CC1(C)C (configuration not stated),> 4 mM (inactive)
2,NC(=O)CCn1ncc2ccccc21,> 4 mM (inactive)
3,Nc1scc[n+]1CC(=O)[O-],> 4 mM (inactive)
4,NCCc1cnc[nH]1,> 4 mM (inactive)
5,CC1(C)N([O-])c2cc([N+](=O)[O-])ccc2[N+]1=O,> 4 mM (inactive)
6,c1cncc(Nc2nc(-c3ccncc3)cs2)c1,> 4 mM (inactive)
7,Cc1ccc(C)n1NC(=O)c1cccs1,> 4 mM (inactive)
8,NC(=O)c1ccccc1NC(=O)c1cccnc1,> 4 mM (inactive)
9,COc1ccc(CN2CCC(O)CC2)c(O)c1,> 4 mM (inactive)
10,O=C(O)c1ncoc1-c1ccccc1,> 4 mM (inactive)
11,Nc1cccc2nsnc12,> 4 mM (inactive)
12,Clc1ncnc2[nH]ncc12,> 4 mM (inactive)
13,O=C1CCCN1c1ccc(S(=O)O)cc1,> 4 mM (inactive)
14,CC(=O)CC1(O)C(=O)Nc2ccc(Br)cc21 (configuration not stated),> 4 mM (inactive)
15,Cc1c(-c2ccc(F)cc2)[n+](=O)c2c(n1[O-])CCC2,> 4 mM (inactive)
16,O=c1cnnc(Nc2ccc(O)cc2)[nH]1,> 4 mM (inactive)
17,O=C1NC(=O)/C(=C\c2ccncc2)S1,> 4 mM (inactive)
18,CCOC(=O)c1sc(SC)c2c1CCCC2O (configuration not stated),> 4 mM (inactive)
19,O=C(COc1ccccc1O)NCCO,> 4 mM (inactive)
20,CC(C)(OC(=O)c1ccccc1)[C@@H]1Cc2cc3ccc(=O)oc3cc2O1,> 4 mM (inactive)
21,Nc1nc(-c2ccc(Cl)cc2)nn1C(=O)c1cccnc1,> 4 mM (inactive)
22,NC(=O)NC(=O)Nc1ccc(Cl)cc1,> 4 mM (inactive)

row,Structure (SMILES),Kd
1,CC(=O)Nc1c(Cl)cnn(-c2ccccc2)c1=O,> 4 mM (inactive)
2,CN1CCN(CC(=O)NC2CCCCC2)CC1,> 4 mM (inactive)
3,O=S(=O)(NCc1ccco1)N1CCOCC1,> 4 mM (inactive)
4,Cn1nnc2cc(C(=O)N3CCSCC3)ccc21,> 4 mM (inactive)
5,Cc1cc(O)c(NC(=O)c2ccco2)cc1C,> 4 mM (inactive)
6,Cc1nc(-c2cccc(C(=O)O)c2)cs1,> 4 mM (inactive)
7,CN1CCc2c(sc(N)c2C#N)C1,> 4 mM (inactive)
8,Cc1cc(C(=O)Nc2sc(C)c(C)c2C#N)no1,> 4 mM (inactive)
9,CN1CCC(NC(=O)C2CCCO2)CC1 (configuration not stated),> 4 mM (inactive)
10,OCC1CNc2ccccc2O1 (configuration not stated),> 4 mM (inactive)
11,CCOC(=O)C1C(=O)C2CCN1CC2 (configuration not stated),> 4 mM (inactive)
12,CC(C)=CCc1c(O)cc2occ(-c3ccc4c(c3)OCO4)c(=O)c2c1O,> 4 mM (inactive)
13,O=C(O)CCCN1CNC(=S)NC1,> 4 mM (inactive)
14,COc1cc(C(=O)O[C@H]2CC[C@@]3(C)[C@@H]4CC[C@H]5[C@]6(O)C[C@H](O)[C@@]7(O)[C@@H](CN8C[C@@H](C)CC[C@H]8[C@@]7(C)O)[C@]6(O)C[C@@]53OC24O)cc(OC)c1OC,> 4 mM (inactive)
15,Cc1ccc(N2CCN(C(=O)c3ccccc3)CC2)c(C)c1,> 4 mM (inactive)
16,O=C(O)CC1C(=O)NCCN1Cc1cccs1 (configuration not stated),> 4 mM (inactive)
17,O=C1C2CC=CCC2C(=O)N1c1cccc(O)c1 (configuration not stated),> 4 mM (inactive)
18,Cc1csc(NC(=O)c2ccoc2C)n1,> 4 mM (inactive)
19,Nc1[nH]c(=S)[nH]c(=O)c1-c1ccccc1,> 4 mM (inactive)
20,OC1CC2CCC1C2 (configuration not stated),> 4 mM (inactive)
21,Cc1occc1C(=O)N1CCN(S(C)(=O)=O)CC1,> 4 mM (inactive)
